Source: the NIST ThermoML archive (doi:10.1016/j.jct.2012.09.028)
± gives the expanded uncertainty stated by the source.

Conditions: 101.33 kPa, Crystal, Vacuum adiabatic calorimetry

O=C[C@H](O)[C@@H](O)[C@H](O)CO [D-xylose]
Conditions | molar entropy [J/K/mol]
0.5 K | 0.0002783
1 K | 0.0007579
1.5 K | 0.001652
2 K | 0.003197
2.5 K | 0.005661
3 K | 0.009356 ± 0.015
3.5 K | 0.01464 ± 0.015
4 K | 0.02194 ± 0.015
4.5 K | 0.0317 ± 0.015
5 K | 0.04448 ± 0.016
5.5 K | 0.06082 ± 0.016
6 K | 0.08137 ± 0.016
6.5 K | 0.1068 ± 0.016
7 K | 0.1377 ± 0.017
7.5 K | 0.1749 ± 0.017
8 K | 0.219 ± 0.018
8.5 K | 0.2706 ± 0.018
9 K | 0.3303 ± 0.019
9.5 K | 0.3987 ± 0.02
10 K | 0.4763 ± 0.021
11 K | 0.6598 ± 0.023
12 K | 0.8803 ± 0.025
13 K | 1.138 ± 0.028
14 K | 1.432 ± 0.03
15 K | 1.761 ± 0.033
16 K | 2.122 ± 0.036
17 K | 2.515 ± 0.04
18 K | 2.935 ± 0.043
19 K | 3.383 ± 0.045
20 K | 3.854 ± 0.048
25 K | 6.505 ± 0.06
30 K | 9.489 ± 0.089
35 K | 12.65 ± 0.099
40 K | 15.88 ± 0.11
45 K | 19.14 ± 0.12
50 K | 22.41 ± 0.13
55 K | 25.66 ± 0.14
60 K | 28.89 ± 0.15
65 K | 32.12 ± 0.16
70 K | 35.35 ± 0.17
75 K | 38.56 ± 0.18
80 K | 41.77 ± 0.19
85 K | 44.96 ± 0.2
90 K | 48.15 ± 0.37
95 K | 51.33 ± 0.38
100 K | 54.5 ± 0.38
110 K | 60.81 ± 0.39
120 K | 67.1 ± 0.4
130 K | 73.34 ± 0.41
140 K | 79.56 ± 0.42
150 K | 85.75 ± 0.43
160 K | 91.91 ± 0.44
170 K | 98.05 ± 0.45
180 K | 104.16 ± 0.46
190 K | 110.25 ± 0.47
200 K | 116.32 ± 0.47
210 K | 122.38 ± 0.48
220 K | 128.42 ± 0.49
230 K | 134.45 ± 0.5
240 K | 140.47 ± 0.51
250 K | 146.47 ± 0.52
260 K | 152.47 ± 0.53
270 K | 158.46 ± 0.54
273.15 K | 160.35 ± 0.54
280 K | 164.44 ± 0.55
290 K | 170.42 ± 0.56
298.15 K | 175.29 ± 0.56
300 K | 176.4 ± 0.56
